The subject of data set [1] is Saccharomyces cerevisiae wild type BY4741. The experiment in a line: MIC determination in Saccharomyces cerevisiae wild type BY4741. Format: cell-based. The settings on record: for MIC: read-out: MIC; for times more active than AmB (MIC): relative to AmB. Here is the method:
(§1) In Vitro Antifungal Activity. MIC values for various strains were determined in accordance with the standard protocol from the National Committee of Clinical Laboratory Standards but using YEPD liquid medium instead of RPMI-1640 medium (National Committee of Clinical Laboratory Standards (Reference Method for Broth Dilution Antifungal Susceptibility Testing of Yeast, M27-A2, Approved Standard-Second Edition, Volume 22, Number 15, 1995). AmB was used as a reference. The strains were cultivated overnight in 5 mL YEPD liquid medium at 30 to 37° C. (30° C. for the strain BY4741; 37° C. for the strain DSY1764) with constant shaking. The saturated cultures were diluted to an ODB600 of 0.1 (3×10P^7 cells/mL). Using 24 wells plate, each well was prepared by adding 1% (12 μL) of DMSO solution of the tested polyene macrolide with 1% (12 μL) yeast cells solution and completed with YEPD (1.176 mL). The plates were sealed with Parafilm and then incubated for 18 to 36 hours at 30 to 37° C. (18 hours at 30° C. for the strain BY4741; 36 hours at 37° C. for the strain DSY1764). The optical density was read at 600 nm using 1.5 mL cuvettes. The MIC value was defined as the drug concentration needed to inhibit growth, less than 5% compared to a drug-free culture.
MIC values of various polyene macrolides of the invention in Saccharomyces cerevisiae wild type BY4741, a derivative of S288C, (with AmB as a reference) were determined as described hereinabove.
Based on the remarkable performance observed with the Diamine-AmB conjugate similar modifications of the aminosugar moiety were made on other polyene macrolides, such as for example Nystatin (1b) and Pimaricin (1c). The antifungal activity of these nystatin and pimaricin conjugates bearing two aminopropyl side chains was measured using Saccharomyces cerevisiae wild type BY4741.

The test system of data set [2] is DSY-296 C. albican CI. The experiment in a line: MIC determination in Candida strain DSY-296. The class given is cell-based, Candida albicans. The following applies: Candida albicans. Here is the method: as §1
(§2) MIC values of the polyene macrolides 3, 9 and 10 (Diamine-AmB and its ester and diamide derivative, respectively) in various Candida strains including an AmB-resistant strain C. albicans (DSY1764, with the genotype erg3AΔ::hisG/erg3BΔ::hisG erg11Δ::hisG/erg11Δ::hisG-URA3-hisG) were determined.

The test system of data set [3] is DSY-562 C. glabrata CI. The experiment in a line: MIC determination in Candida strain DSY-562. The class given is cell-based. The following applies: Nakaseomyces glabratus. The protocol: as §1, §2
The test system of data set [4] is DSY-1764 C. albican mutant erg3/11 (AmB-resistant strain). The experiment in a line: MIC determination in AmB-resistant Candida strain DSY-1764. The class given is cell-based, Candida albicans. The following applies: Candida albicans, 36 h. Here is the method:
as §1, §2

For data set [5], the system named is human erythrocytes. Briefly: Hemolytic assay (EH50). Format: cell-based. The settings on record: concentration that led to 50% hemolysis of human erythrocytes; one hour at 37° C. The protocol: Hemolytic Assay. The hemotoxicity of the polyene macrolide derivatives of the invention was determined by measuring the toxicity towards human erythrocytes (EH50 value) using an established assay (Kinsky, S. C. et al., Biochem. Biophys. Res. Comm. 1962, 9, 503). Human blood, anticoagulated with citrate or EDTA, was centrifuged (2000×g) at 4° C. for 10 minutes. The pellets were washed three times with PBS buffer (pH 7.2 with 2 g/L glucose) and then diluted to a concentration of 4% (4×10^8 cells/mL). All experiments were done in triplo and the total volume for the hemolysis tubes was 1.4 ml. The solutions were prepared by adding 1% (14 μL) of DMSO solution of the tested compound with […] of PBS buffer and completed with 750 μL of 4% erythrocytes. After one hour incubation at 37° C., the samples were centrifuged (1500×g) at 4° C. for 5 min and the absorbance of the supernatant was measured at 560 nm. The concentration that led to 50% hemolysis (EH50) was intrapolated graphically. The value for the 100% hemolysis was obtained by the treatment with 100 μM of AmB.
The toxicity of AmB (1a) and the polyene macrolides 3, 9 and 10 towards human erythrocytes was examined using the above described hemolysis assay (Table 3).

A short description of data set [6]: K+ efflux assay, ergosterol containing vesicles. The following applies: lower concentration, 0.1 μM (FIG. 3a,c,e,g). The protocol: FIG. 3. K^+ efflux from vesicles (LUVET100) prepared from […] (POPC) (solid line) or POPC with sterols (dotted line) for ergosterol and (broken line) for cholesterol caused by AmB (1a) (FIGS. 3a,b) and AmB diamine 3 (FIG. 3c,d), AmB diamine ester 9 (FIG. 3e,f) and AmB diamine amide 10 (FIG. 3g,h), added in DMSO to a suspension of vesicles to give final concentrations of 0.1 μM (FIG. 3a,c,e,g) and 1.0 μM (FIG. 3b,d,f,h).
K+ efflux assay. The K^+ efflux measurements were made following a previously described procedure (Zumbuehl, A. et al., Angew. Chem. Int. Ed. 2004, 43, 5181-5185; Zumbuehl, A. et al., Org. Lett. 2004, 6, 3683-3686). The appropriate liposome suspensions were prepared using POPC, cholesterol and ergosterol. Then the liposomes were sized by extrusion through two 400 nm, 200 nm, and finally 100 nm pore size membrane. The resultant “100 nm” unilamellar liposomes were dialyzed against 600 mL of 150 mM NaCl, 5 mM HEPES (pH 7.4) buffer. After, the suspension was diluted with 150 mM NaCl, 5 mM HEPES (pH 7.4) buffer to 1 mM overall lipid concentration (phospholipids+sterols). For each efflux measurement 10 mL of this liposome suspension was placed in a small beaker. Potentiometric measurements were performed with a 16-channel electrode monitor in magnetically stirred solutions at ambient temperature. The reference electrode was a Metrohm double junction Ag/AgCl reference electrode with 3 M KCl as reference electrolyte and 1 M LiOAc as bridge electrolyte. […] The resulting reading (taken after 0.5 h) was used to quantify the 100% K+-release.
As described hereinbefore differential interaction between ergosterol found in fungal membranes and cholesterol in mammalian cells is considered the basis for the selectivity of AmB (1a) as an antifungal agent. The preferential stabilization of ion channel formation in the membrane by ergosterol ultimately results in electrolyte leakage which can be conveniently measured by K^+ efflux from sterol containing vesicles. […]

Where [7] appears, read: Saccharomyces cerevisiae wild type BY4741, YEPD liquid medium, 18 hours at 30° C.
The mark [8] stands for this setting: Saccharomyces cerevisiae wild type BY4741.
Where [9] appears, read: Saccharomyces cerevisiae, Table 3, strain not given, values as in Table 1 (S. cerevisiae BY4741).

Values after ≈ are worked out from the molar mass of the structure shown. Read-outs that look alike come from different tables or passages of the source.

With `C[C@@H]1[C@H](O)[C@@H](C)/C=C/C=C/C=C/C=C/C=C/C=C/C=C/[C@H](O[C@@H]2O[C@H](C)[C@@H](O)[C@H](N(CCCN)CCCN)[C@@H]2O)CC2O[C@](O)(C[C@@H](O)C[C@@H](O)[C@H](O)CC[C@@H](O)C[C@@H](O)CC(=O)O[C@H]1C)C[C@H](O)[C@H]2C(=O)NCCN` [compound 10, 16-(N′-(2-Aminoethyl)-carboxamide)-N,N-di-(3-aminopropyl)-AmB], the MIC amounted to 0.04 µM (≈ 0.0432 µg/mL) in data set [1] (setting [7]); 0.04 µM (≈ 0.0432 µg/mL) in data set [1] (setting [9]); 0.75 µM (≈ 0.81 µg/mL) in data set [2]; 0.5 µM (≈ 0.54 µg/mL) in data set [3]; 4 µM (≈ 4.32 µg/mL) in data set [4]. For the same compound, in data set [1] (setting [8]), the “times more active than AmB (MIC)” value turned out to be 7.5 times. This compound came in with an EH50 in data set [5] of 30 µM. The “K+ efflux with ergosterol containing vesicles” value in data set [6] was “observed exclusively with the ergosterol containing vesicles”.
In the case of `COC(=O)[C@H]1[C@@H]2C[C@@H](O[C@@H]3O[C@H](C)[C@@H](O)[C@H](N(CCCN)CCCN)[C@@H]3O)/C=C/C=C/C=C/C=C/C=C/C=C/C=C/[C@H](C)[C@@H](O)[C@@H](C)[C@H](C)OC(=O)C[C@H](O)C[C@H](O)CC[C@@H](O)[C@H](O)C[C@H](O)C[C@](O)(C[C@@H]1O)O2` [compound 9, N,N-Di-(3-aminopropyl)-AmB Methyl Ester], the MIC came to 0.1 µM (≈ 0.105 µg/mL) in data set [1] (setting [7]); 0.1 µM (≈ 0.105 µg/mL) in data set [1] (setting [9]); 0.1 µM (≈ 0.105 µg/mL) in data set [2]; 0.25 µM (≈ 0.263 µg/mL) in data set [3]; 4 µM (≈ 4.21 µg/mL) in data set [4]. Further, the “times more active than AmB (MIC)” value in data set [1] (setting [8]) came out at 3 times. Besides, the EH50 in data set [5] was determined as 50 µM. For the same compound, the “K+ efflux with ergosterol containing vesicles” value in data set [6] was “observed exclusively with the ergosterol containing vesicles”.

For orientation: MIC means the lowest concentration found to suppress growth.
